Results reported in a melting point compilation (Tetko et al.; mined from patent text by program, amines drawn as free bases though some values may be those of a salt).

CC1(C)C(=O)Nc2cc3c(cc21)OC(O)N3 (stereo not given) and CCON1CCC2(CC1)NC(=O)C(c1c(C)cc(C)cc1C)=C2O cannot be ordered by melting point: 297 to 299 °C for the first, over 250 °C for the second.

Compared with Cc1ccc2nc(NC3=NCCN3)[nH]c2c1C, Cn1cc(-c2cc3nccnc3[nH]2)c2cc(O)ccc21 is higher in melting point: 199 to 204 °C for the first, 289 to 290 °C for the second.

Compared with CN1C(=O)C2C3Oc4ccccc4OC3=C3C(Oc4cccnc4N3C(=O)Oc3ccccc3)C2C1=O (stereo not given), O=C1COC(=O)N1C(c1ccccc1)(c1ccccc1)c1ccccc1 is lower in melting point: 245 °C for the first, 216 to 218 °C for the second.

Compared with O=C(Nc1ccccc1)N1CCc2[nH]c3c(cnc4cc(Cl)ccc43)c2C1, O=C1CCC2=C(c3ccccc3)c3cc(Cl)ccc3C2N1 (stereo not given) is lower in melting point: over 260 °C for the first, 234 to 238 °C for the second.

Compared with CCc1nc2c(n1Cc1ccc(-c3ccccc3)cc1)C(=O)N(C)CN2c1ccc(Cl)cc1Cl, COC1=C(OC)C(=O)C2=C(CCC(CCOc3ccc(-c4ccccc4)cc3)CC2)C1=O is lower in melting point: 216 to 217 °C for the first, 109 to 112 °C for the second.

First: CCCCCCc1cc2c(s1)-n1c(C)nnc1CN=C2c1cccc(C)c1
Second: CCc1c(-c2ccc(OCc3ccccc3)cc2)c2cc(COCCCN(C)C)c3cccc1n32
The melting point of the first is lower: 57 to 59 °C for the first, 63 to 65 °C for the second.

First: COC(=O)C=Cc1c(C(=O)OC)c2c(n1C)C(=O)C=C(OC)C2=O
Second: COC(=O)c1cc2c3c(Cl)cc(Cl)cc3n(C)c2s1
The melting point of the first is higher: 235 to 236 °C for the first, 231 to 232 °C for the second.

First: COC(=O)c1ccc(C)c(-n2c(C)cc(OCc3ccccc3CNC(=O)Nc3cc(C(C)(C)C)nn3-c3ccc(O)c(Cl)c3)c(Cl)c2=O)c1
Second: O=C(O)Cn1c(=O)c(=O)[nH]c2ccc3ccc(-n4ccc(CN5CCc6ccccc6C5)c4)cc3c21
The melting point of the first is lower: 185 to 186 °C for the first, over 250 °C for the second.

First: O=C1CCC(N2Cc3c(OCc4cccc(CN5CCC(c6ccc(Cl)cc6)CC5)c4)cccc3C2=O)C(=O)N1 (stereo not given)
Second: O=c1[nH]c2ccc([C@H]3CC[C@H](NCCCc4ccccc4)CC3)cc2o1
The melting point of the first is higher: 180 to 182 °C for the first, 166 to 170 °C for the second.

Compared with CCOC(=O)/C(=C/c1ccc(OC)c(OC2CCCC2)c1)c1ccncc1, COc1ccc(C(=N)N(N)c2c(Cl)cncc2Cl)cc1OC1CCCC1 is higher in melting point: 109 to 110 °C for the first, 130 to 131 °C for the second.

First: CC(C)(C)OC(=O)CNC(=O)c1sc(Nc2ccccc2)c2c1CCc1cnoc1-2
Second: CC(C)(C)OC(=O)N1CCCC1c1ccnc(-c2nc(=O)c3ccccc3s2)c1 (stereo not given)
The melting point of the first is lower: 115 to 116 °C for the first, 195 to 196 °C for the second.

First: CCCCOC(=O)c1cc(=NS(=O)(=O)c2ccccc2)c2c(Cl)cc(Cl)cc2[nH]1
Second: CCCN1CC(c2ccc(S(C)(=O)=O)cc2)=C(Oc2ccccc2)C1=O
The melting point of the first is lower: 94 to 95 °C for the first, 163 to 165 °C for the second.

First: CCOC(=O)CN(CP(=O)(ONN1CCOCC1)ONN1CCOCC1)C(=O)C(F)(F)F
Second: CC(=O)CC(=O)NC1CCCCCCC1
The melting point of the first is higher: 69 to 74 °C for the first, 44 °C for the second.

Compared with CCCCc1ccnc(C2(C(=S)NC)CCCS2)c1 (stereo not given), CCCC12COC(c3ccc(I)cc3)(OC1)SC2 is higher in melting point: 102 °C for the first, 128 to 132 °C for the second.

Compared with COC(=O)c1cc(C(=O)N(C)CC(=O)N(C)C)c2cc(Cc3ccc(F)cc3)cnc2c1O, COc1ccc2cc([C@H](C)C(=O)OCC(=O)N(C)CCCO[N+](=O)[O-])ccc2c1 is higher in melting point: 99 to 100 °C for the first, 104 to 105 °C for the second.

First: NC(=NO)C1CCN(c2ccc3c(NC(=O)CC4CCCCC4)c(Cl)ccc3n2)CC1
Second: O=C1CCC2CCCC(CCC(=O)OCc3ccccc3)C2N1 (stereo not given)
The melting point of the first is higher: 246 to 247 °C for the first, 101 to 102 °C for the second.

First: Cc1cc2c(cc1Sc1ccc(C(=O)Nc3ccc(O)cc3)cc1)C(C)(C)CCC2(C)C
Second: Cc1ccc(S(=O)(=O)OCC2COc3ccc4ccccc4c3O2)cc1 (stereo not given)
The melting point of the first is higher: 236 to 237 °C for the first, 122 to 124 °C for the second.

Compared with N=C(N)c1nc2c(s1)CCc1c-2sc2ncnn12, CCCOc1ncc(C(C)=O)cc1-c1nc2c(CC)n(C3CN(C(C)=O)C3)nc2c(=O)[nH]1 is lower in melting point: over 300 °C for the first, 229 to 230 °C for the second.

First: CC1CN(c2ncc(C(=O)N(C)c3cccc(C(F)(F)F)c3)c(N)n2)C(=O)N1 (stereo not given)
Second: Cc1cc(-c2sc(N3CCN(Cc4ccc(C(F)(F)F)cc4)C3=O)nc2C)n[nH]1
The melting point of the first is lower: 237 to 238 °C for the first, 238 to 239 °C for the second.

First: Cc1cccc2nc(C(S)c3ncnc4[nH]cnc34)n(-c3ccccc3Cl)c(=O)c12 (stereo not given)
Second: O=[N+]([O-])c1ccc(-c2cc3c(Nc4ccc(Cl)cc4F)ncnc3o2)cc1
The melting point of the first is higher: 228 to 230 °C for the first, 174 to 177 °C for the second.

First: CC(C)(C)OC(=O)N(CC=CCl)c1cc(OCc2ccccc2)c2ncccc2c1I
Second: CCCOc1c(-c2cc(C=CC(=O)O)ccc2O)cc(C(C)(C)C)cc1C(C)(C)C
The melting point of the first is higher: 115 to 135 °C for the first, 104 to 106 °C for the second.

First: CCCOc1ccccc1-c1nc(NCC)cc(=O)[nH]1
Second: Cc1c(CN2CCOCC2)ccc2c1-c1[nH]nc(-c3ccsc3)c1C2
The melting point of the first is lower: 187 to 188 °C for the first, 272 to 274 °C for the second.

Compared with Cc1c(F)c(F)c(-n2ncc(C#N)c2N)c(F)c1F, Cc1ccc(-c2cc(C(F)(F)F)nn2-c2ccc(S(=O)(=O)NO)cc2)cc1 is higher in melting point: 169 to 170 °C for the first, 203 °C for the second.

Compared with Cc1ccc(S(=O)(=O)N2CC2CBr)cc1 (stereo not given), CS(=O)(=O)NCCN1CCC(CO)CC1 is higher in melting point: 75 to 78 °C for the first, 81 to 82 °C for the second.

Compared with OCCCCCCCCCCCCCCCCNCCO, CCCCCS(=O)(=O)NCC(=O)O is higher in melting point: 80 to 81.2 °C for the first, 87 to 90 °C for the second.
